From PMC10165273, “Itch receptor MRGPRX4 interacts with the receptor activity–modifying proteins” (The Journal of Biological Chemistry, 2023)
“And” between values parts separate entries of the source, which are not always exact repeats. Equal values may be shown once.

Tests used:
MRGPRX4 + RAMP2 = target: T1, MRGPRX4 + RAMP2 (Homo sapiens, UniProt Q96LA9); test: BRET2 β-arrestin2 recruitment, MRGPRX4 with RAMP2; type: cell-based; conditions: for BRET2 ratio, time course (Figure 5e): MRGPRX4 + RAMP2 100μM Ng, listed as Ng
T1 construct: expressed in transfected cells; host or cells: HEK293T
T1 sequence (Q96LA9 whole entry): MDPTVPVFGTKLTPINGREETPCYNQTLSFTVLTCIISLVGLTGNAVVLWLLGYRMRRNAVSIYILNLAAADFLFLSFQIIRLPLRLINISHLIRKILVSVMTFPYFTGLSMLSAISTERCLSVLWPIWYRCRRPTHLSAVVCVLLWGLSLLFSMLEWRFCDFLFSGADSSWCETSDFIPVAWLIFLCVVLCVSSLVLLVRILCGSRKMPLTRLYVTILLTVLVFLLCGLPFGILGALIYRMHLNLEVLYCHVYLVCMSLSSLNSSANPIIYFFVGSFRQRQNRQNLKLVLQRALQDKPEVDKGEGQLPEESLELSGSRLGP
Procedure: (§1) The method for homogenous transfection of β-Arrestin and BRET^2 assay of β-Arrestin recruitment has been described previously ([51]). […] BRET^2 measurements were taken on the BioTek Synergy NEO2 microplate reader.
(§2) To measure the time-course of β-Arrestin2 recruitment to MRGPRX4 and CALCRL, the transfection and general procedure described above was followed, with the modification that Prolume Purple was added first, followed by addition of the appropriate agonists ([51]).
(§3) The BRET ratio for each sample was determined by calculating the ratio of the light intensity emitted by the GFP10 (515 nm) (acceptor) over the light intensity emitted by the RLuc3 (395 nm) (donor). Net BRET^2 was determined by subtracting the basal BRET^2 (β-arrestin-RLuc3 only) signal from the BRET^2 signals. All BRET values were normalized to the MRGPRX4-only condition.

mock-transfected cells = test: BRET2 β-arrestin recruitment time course, mock-transfected cells; type: cell-based, human; conditions: Fig 5c, 100μM ligand, listed as Ng
MRGPRX4 = target: T2, MRGPRX4 (Homo sapiens, UniProt Q96LA9); test: BRET2 β-arrestin2 recruitment to MRGPRX4; type: cell-based; conditions: for net BRET2 ratio, βArr2 recruitment: Fig 5b, 100µM ligand, replicate values; for net BRET2 ratio, βArr2 recruitment / BRET2 ratio: listed as Ng; for BRET2 ratio: Fig 5c, MRGPRX4, 100μM ligand
T2 construct: expressed in transfected cells; host or cells: HEK293T
T2 sequence (Q96LA9 whole entry): as above
Excerpt: as §1
For MRGPRX4 DNA titration assays, HEK293T cells were cotransfected with either β-Arrestin1 or β-Arrestin2 with increasing amounts of MRGPRX4 (0.5, 1, or 2 pg/cell).
as §2, §3

CC(C)[C@H]1CC[C@H](C(=O)N[C@H](Cc2ccccc2)C(=O)O)CC1 [Nateglinide]
BRET2 ratio, time course (Figure 5e) (MRGPRX4 + RAMP2; 60 seconds): 0.009668 and 0.00973 and 0.009697
BRET2 ratio, time course (Figure 5e) (MRGPRX4 + RAMP2; 120 seconds): 0.01023 and 0.01 and 0.01054
BRET2 ratio, time course (Figure 5e) (MRGPRX4 + RAMP2; 180 seconds): 0.01074 and 0.009771 and 0.01057
BRET2 ratio, time course (Figure 5e) (MRGPRX4 + RAMP2; 240 seconds): 0.01008 and 0.0101 and 0.01015
BRET2 ratio, time course (Figure 5e) (MRGPRX4 + RAMP2; 300 seconds): 0.009689 and 0.009979 and 0.01017
BRET2 ratio, time course (Figure 5e) (MRGPRX4 + RAMP2; 360 seconds): 0.009793 and 0.009837 and 0.01091
BRET2 ratio, time course (Figure 5e) (MRGPRX4 + RAMP2; 420 seconds): 0.009697 and 0.01031 and 0.01076
BRET2 ratio, time course (Figure 5e) (MRGPRX4 + RAMP2; 480 seconds): 0.00993 and 0.009604 and 0.009499
BRET2 ratio, time course (Figure 5e) (MRGPRX4 + RAMP2; 540 seconds): 0.00961 and 0.009808 and 0.01044
BRET2 ratio, time course (Figure 5e) (MRGPRX4 + RAMP2; 600 seconds): 0.01026 and 0.01047 and 0.00952
BRET2 ratio, time course (Figure 5e) (MRGPRX4 + RAMP2; 660 seconds): 0.009244
decrease in β-arrestin2 recruitment upon nateglinide treatment (MRGPRX4 + RAMP2; RAMP2 coexpression vs MRGPRX4 alone (Fig. 5F)): 73%
BRET2 ratio (mock-transfected cells; 60 s): 0.008415 and 0.007646 and 0.00794
BRET2 ratio (mock-transfected cells; 120 s): 0.007842 and 0.007685 and 0.007289
BRET2 ratio (mock-transfected cells; 180 s): 0.007259 and 0.007981 and 0.007565
BRET2 ratio (mock-transfected cells; 240 s): 0.007155 and 0.006788 and 0.008148
BRET2 ratio (mock-transfected cells; 300 s): 0.007567 and 0.007447 and 0.007514
BRET2 ratio (mock-transfected cells; 360 s): 0.008471 and 0.007058 and 0.007429
BRET2 ratio (mock-transfected cells; 420 s): 0.007097 and 0.007188 and 0.007508
BRET2 ratio (mock-transfected cells; 480 s): 0.006826 and 0.007196 and 0.007205
BRET2 ratio (mock-transfected cells; 540 s): 0.008083 and 0.00749 and 0.00867
BRET2 ratio (mock-transfected cells; 600 s): 0.007686 and 0.006192 and 0.007271
BRET2 ratio (mock-transfected cells; 660 s): 0.006698 and 0.007765 and 0.007192
BRET2 ratio (mock-transfected cells; 720 s): 0.00801 and 0.006623 and 0.005548
BRET2 ratio (mock-transfected cells; 780 s): 0.009777 and 0.007416 and 0.006284
BRET2 ratio (mock-transfected cells; 840 s): 0.007062 and 0.008946 and 0.00672
BRET2 ratio (mock-transfected cells; 900 s): 0.007894 and 0.008249 and 0.007741
BRET2 ratio (mock-transfected cells; 960 s): 0.008424 and 0.006304 and 0.008892
BRET2 ratio (mock-transfected cells; 1020 s): 0.008684 and 0.007837 and 0.007668
BRET2 ratio (mock-transfected cells; 1080 s): 0.008011 and 0.008281 and 0.007344
BRET2 ratio (mock-transfected cells; 1140 s): 0.009425 and 0.00762 and 0.007536
BRET2 ratio (mock-transfected cells; 1200 s): 0.006477 and 0.008078 and 0.009426
BRET2 ratio (mock-transfected cells; 1260 s): 0.008155 and 0.006248 and 0.008937
BRET2 ratio (mock-transfected cells; 1320 s): 0.008765 and 0.01027 and 0.007016
BRET2 ratio (mock-transfected cells; 1380 s): 0.009766 and 0.009472 and 0.01001
β-arrestin2 recruitment to MRGPRX4 (MRGPRX4; 100 μM agonist (Fig. 5B, C)): recruited β-arrestin2 more strongly than β-arrestin1
net BRET2 ratio, βArr2 recruitment (MRGPRX4; MRGPRX4 20ng, 0.5 pg DNA/cell): 0.01059 and 0.011 and 0.01083 and 0.009137 and 0.01004 and 0.009779 and 0.007885 and 0.007959 and 0.007875 and 0.009405 and 0.008616 and 0.00928 and 0.007811 and 0.00797 and 0.009994 and 0.008653 and 0.00706 and 0.007614 and 0.007209 and 0.007504 and 0.007132 and 0.006566 and 0.006348 and 0.007157 and 0.004522 and 0.007759 and 0.005207
net BRET2 ratio, βArr2 recruitment (MRGPRX4; MRGPRX4 40ng, 1 pg DNA/cell): 0.01411 and 0.01341 and 0.01314 and 0.01164 and 0.01153 and 0.01104 and 0.009585 and 0.009093 and 0.008671 and 0.0118 and 0.009621 and 0.01107 and 0.01117 and 0.01052 and 0.009545 and 0.01099 and 0.00914 and 0.009334 and 0.008409 and 0.01062 and 0.01019 and 0.008186 and 0.008003 and 0.007557 and 0.007525 and 0.005338 and 0.009291
net BRET2 ratio, βArr2 recruitment (MRGPRX4; MRGPRX4 80ng, 2 pg DNA/cell): 0.01501 and 0.01563 and 0.01506 and 0.0134 and 0.0136 and 0.01318 and 0.01149 and 0.0115 and 0.01095 (2×) and 0.01387 and 0.01159 and 0.01257 and 0.01157 and 0.01276 and 0.01058 and 0.009957 and 0.009364 and 0.01169
net BRET2 ratio, βArr2 recruitment (MRGPRX4; βArr2 only, 0 pg MRGPRX4 DNA/cell): 0.0002584 and -0.0001954 and -6.2982e-5 and -0.0001775 and 0.0006514 and -0.0004739 and -9.3811e-5 and 0.0004305 and -0.0003367 and -6.4621e-5 and -0.0005147 and 0.0005793 and -0.0001286 and 0.0001629 and -3.4338e-5 and 0.0006863 and -0.0005797 and -0.0001066 and -6.7124e-5 and 1.05e-5 and 5.6622e-5 and 0.0001307 and -0.0006572 and 0.0005265 and 0.0006391 and 0.0003062 and -0.0009453
BRET2 ratio (MRGPRX4; 60 s): 0.01411 and 0.01234 and 0.0129
BRET2 ratio (MRGPRX4; 120 s): 0.01624 and 0.01368 and 0.01342
